Results reported in PMC6712577 (Neuron, 2019).

Experiments:
NAcC ChAT neurons = assay: ChAT neuron firing rate; type: cell-based, mice; settings: for spontaneous ChAT firing rate in the absence of substance P: L-733,060 10 μM or aprepitant 1 μM, Figure S4I; for stimulation-enhanced ChAT firing rate: 50-Hz D1-MSN stimulation; for substance-P-enhanced ChAT firing rate: substance P 100 nM
NAcC D2-MSNs [1] = assay: electrically evoked EPSCs, whole-cell voltage clamp, NAcC D2-MSNs; type: cell-based, mice; settings: for EPSC amplitude, %baseline (block of substance-P-induced potentiation) / EPSC amplitude, %baseline (block of stimulation-induced LLP) / EPSC amplitude, %baseline (block of stimulation-induced potentiation): mean ± SEM; for effect of antagonist alone on synaptic properties: absence of other stimuli, Figures S2C–S2F
[2] = system: AMPAR currents on NAcC D2-MSNs; assay: AMPAR current-voltage relationship; type: cell-based, mice; settings: +40 mV; for inward rectification of AMPAR currents caused by stimulation: D1-MSN 50-Hz stimulation with inhibitor, Figures 7B, 7D, 7F, 7H
NAcS D2-MSNs = assay: electrically evoked EPSCs, whole-cell voltage clamp, NAcS D2-MSNs; type: cell-based, mice; settings: D1-MSN 50-Hz stimulation
NAcC D2-MSNs [3] = assay: paired pulse ratios, NAcC D2-MSNs; type: cell-based, mice; settings: D1-MSN 50-Hz stimulation with inhibitor; Figures S7A–S7D
[4] = target: neurokinin 1 receptor (NK1R) (Homo sapiens, UniProt P25103); assay: BRET assay, antagonist mode; type: biochemical; settings: antagonist added 15 min before 100 nM substance P, Figure S4G
Chain of neurokinin 1 receptor (NK1R) (P25103 whole entry, species assumed): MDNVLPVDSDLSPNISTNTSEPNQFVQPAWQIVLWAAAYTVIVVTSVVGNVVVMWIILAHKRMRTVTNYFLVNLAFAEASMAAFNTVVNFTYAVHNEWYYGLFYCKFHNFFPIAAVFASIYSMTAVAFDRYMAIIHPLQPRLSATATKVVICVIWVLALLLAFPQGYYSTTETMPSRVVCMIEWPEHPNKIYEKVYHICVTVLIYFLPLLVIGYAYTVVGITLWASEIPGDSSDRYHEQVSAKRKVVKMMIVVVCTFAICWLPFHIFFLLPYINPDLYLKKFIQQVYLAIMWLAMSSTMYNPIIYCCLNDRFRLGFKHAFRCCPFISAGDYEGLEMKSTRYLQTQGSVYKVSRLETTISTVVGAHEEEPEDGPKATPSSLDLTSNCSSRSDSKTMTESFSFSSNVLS
Chain of neurokinin 1 receptor (NK1R) (P50148 whole entry partner, species assumed): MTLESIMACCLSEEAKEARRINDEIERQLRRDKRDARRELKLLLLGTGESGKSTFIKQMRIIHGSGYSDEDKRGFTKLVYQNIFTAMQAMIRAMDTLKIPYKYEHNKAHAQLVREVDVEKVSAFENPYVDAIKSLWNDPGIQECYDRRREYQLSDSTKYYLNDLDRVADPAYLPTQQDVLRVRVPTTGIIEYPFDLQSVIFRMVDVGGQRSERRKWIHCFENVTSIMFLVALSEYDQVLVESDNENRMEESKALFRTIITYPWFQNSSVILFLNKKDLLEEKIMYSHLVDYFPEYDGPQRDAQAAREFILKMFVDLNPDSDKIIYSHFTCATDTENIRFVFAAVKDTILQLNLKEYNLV

## CC[C@H](NC(=O)c1c(C)c(-c2ccccc2)nc2ccccc12)c1ccccc1 [SB-2220]
NAcC ChAT neurons; addition of 1 μM NK3R antagonist SB-2220, Figure S4J
  substance-P-enhanced ChAT firing rate, further block: not blocked any further

## CN1CCN(CC(=O)N2c3ccccc3C(=O)Nc3cccnc32)CC1 [pirenzepine]
NAcC ChAT neurons; pirenzepine, Figures S6C, S6D
  ChAT firing rate at baseline and its enhancement due to substance P: neither affected ChAT firing rate at baseline nor the enhancement in firing frequency due to substance P
NAcC D2-MSNs [1]; pirenzepine 1 μM, substance P 100 nM, Figures 6A, S6B
  EPSC amplitude, %baseline (block of substance-P-induced potentiation): 103.1% ± 12.95%
NAcC D2-MSNs [1]; pirenzepine 1 μM, substance P 1 μM, Figures 6A, S6B
  EPSC amplitude, %baseline (block of substance-P-induced potentiation): 89.88% ± 9.14%
NAcC D2-MSNs [1]; pirenzepine alone, Figure S6E
  synaptic properties in D2-MSNs: did not affect synaptic properties
[2]; pirenzepine, Figures 6C, 6D
  AMPAR inward rectification caused by substance P or 50 Hz stimulation: prevented this rectification

## Oc1ccc2c3c1O[C@H]1c4[nH]c5c(c4C[C@@]4(O)[C@@H](C2)N(CC2CC2)CC[C@]314)C[C@@]1(O)[C@H]2Cc3ccc(O)c4c3[C@@]1(CCN2CC1CC1)[C@H]5O4 [norbinaltorphimine]
NAcS D2-MSNs; norbinaltorphimine 400 nM, mean ± SEM, Figure S1H
  EPSC amplitude, %baseline (stimulation-induced depression): 61.56% ± 10.78%

## O=C(O)CN(CC(=O)O)c1ccccc1OCCOc1ccccc1N(CC(=O)O)CC(=O)O [BAPTA, 1,2-bis(o-aminophenoxy)ethane-N,N,N′,N′-tetra-acetic acid]
NAcC D2-MSNs [1]; BAPTA 10 mM internal, D1-MSN 50-Hz stimulation, Figure 7E
  cells potentiated: 3/9
NAcC D2-MSNs [3]
  paired pulse ratio change after stimulation: lack of ability to detect a change in PPR

## CC(=O)C1=C(O)[C@@H]2[C@H]3c4c[nH]c5cccc(c45)C[C@H]3C(C)(C)N2C1=O [CPA, cyclopiazonic acid]
NAcC D2-MSNs [1]; CPA, depletion of calcium stores, D1-MSN 50-Hz stimulation, n = 8, p > 0.05, Figure 7G
  EPSC amplitude, %baseline (block of stimulation-induced LLP): 80.18% ± 7.07%
NAcC D2-MSNs [3]
  paired pulse ratio change after stimulation: significantly increased
[2]
  inward rectification of AMPAR currents caused by stimulation: prevented inward rectification

## C[C@@H](O[C@H]1OCCN(Cc2n[nH]c(=O)[nH]2)[C@H]1c1ccc(F)cc1)c1cc(C(F)(F)F)cc(C(F)(F)F)c1 [aprepitant]
NAcC ChAT neurons
  spontaneous ChAT firing rate in the absence of substance P: did not have effects on spontaneous ChAT firing rate
NAcC ChAT neurons; aprepitant 1 μM, n = 13, p > 0.05, Figure 5B
  stimulation-enhanced ChAT firing rate: suppressed, but not completely blocked
NAcC ChAT neurons; aprepitant 1 μM, Figure S4H
  substance-P-enhanced ChAT firing rate: suppressed
[4]
  concentration of maximal inhibition of receptor activity: ~10 µM
NAcC D2-MSNs [1]
  effect of antagonist alone on synaptic properties: neither L-733,060 nor aprepitant altered synaptic properties
NAcC D2-MSNs [1]; aprepitant 1 μM, single 5-s, 50-Hz train of D1-MSN stimulation, n = 8, p > 0.05, Figure 2G
  EPSC amplitude, %baseline (block of stimulation-induced potentiation): 98.02% ± 10.73%

## Cl.FC(F)(F)c1cc(CO[C@H]2CCCN[C@H]2c2ccccc2)cc(C(F)(F)F)c1 [L-733,060]
NAcC ChAT neurons
  spontaneous ChAT firing rate in the absence of substance P: did not have effects on spontaneous ChAT firing rate
NAcC ChAT neurons; L-733,060 10 μM, Figure S5C
  stimulation-enhanced ChAT firing rate: blocked
NAcC ChAT neurons; L-733,060 10 μM, Figures 4F, 4G
  substance-P-enhanced ChAT firing rate: suppressed
NAcC ChAT neurons; against 100 nM substance P, Figure 4E
  concentration of maximal inhibition of enhanced ChAT firing: 10 µM
[4]
  concentration of maximal inhibition of receptor activity: ~10 µM
NAcC D2-MSNs [1]; L-733,060 10 μM with substance P bath application, n = 9, p > 0.05, Figure 2B
  EPSC amplitude, %baseline (block of substance-P-induced potentiation): 101.1% ±7.07%
NAcC D2-MSNs [1]; L-733,060, 5 min of NAcC D1-MSN 50-Hz stimulation, transient depression, Figure S2B
  EPSC amplitude, %baseline (block of stimulation-induced potentiation): 79.52% ± 8.22%
NAcC D2-MSNs [1]
  effect of antagonist alone on synaptic properties: neither L-733,060 nor aprepitant altered synaptic properties

## CC[N+](CC)(CCNC(=O)C(=O)NCC[N+](CC)(CC)Cc1ccccc1Cl)Cc1ccccc1Cl [ambenonium]
NAcS D2-MSNs; ambenonium 40 nM (acetylcholinesterase block), Figure S6G
  stimulation-induced depression on NAcS D2-MSNs: did not alleviate the depression

## COc1ccc2c(c1)CC[C@@H]1[C@@H]2CC[C@]2(C)[C@@H](NCCCCCCN3C(=O)C=CC3=O)CC[C@@H]12 [U-73122]
NAcC D2-MSNs [1]; U-73122 3 μM, D1-MSN 50-Hz stimulation, n = 9, p < 0.05, Figure 7C
  EPSC amplitude, %baseline (block of stimulation-induced LLP): 66.06% ± 8.70%
NAcC D2-MSNs [3]
  paired pulse ratio change after stimulation: significantly increased
[2]
  inward rectification of AMPAR currents caused by stimulation: prevented inward rectification

## picrotoxin
NAcC ChAT neurons; picrotoxin, on average, Figure S5F
  increase in baseline ChAT firing frequency: 1.37 ± 0.66 Hz
